Data from ChEMBL document CHEMBL5126518, “Quercetin derivatives: Drug design, development, and biological activities, a review” (Eur J Med Chem, 2022).
≈ marks a conversion by molar mass, not a printed value.

Columns and labels:
[1] = molecular target: UDP-galactopyranose mutase (Mycobacterium tuberculosis) (UniProt P9WIQ1); test: Inhibition of Mycobacterium tuberculosis UGM at 20 uM by HPLC inhibition assay relative to control
[2] = molecular target: UDP-galactopyranose mutase (Mycobacterium tuberculosis, UniProt P9WIQ1); test: Binding affinity to Mycobacterium tuberculosis UGM assessed as dissociation constant by fluorescence polarization assay
LN-229 = test: Antiproliferative activity against human LN-229 cells assessed as reduction in cell viability incubated for 48 hrs by SRB assay; assay type: functional
[3] = molecular target: Type-1 angiotensin II receptor (Homo sapiens, UniProt P30556); test: Inhibition of human AT1R expressed in HEK293 cells by non-linear regression analysis; assay type: cell-based
U-87 MG = test: Antiproliferative activity against human U87 cells assessed as reduction in cell viability incubated for 48 hrs by SRB assay; assay type: functional, U-87MG ATCC
[4] = Antioxidant activity assessed as DPPH radical scavenging activity up to 2 mM relative to control; assay type: functional
[5] = Antioxidant activity assessed as DPPH radical scavenging activity after 30 mins under dark condition; assay type: functional
MDA-MB-231 [6] = test: Antiproliferative activity against human MDA-MB-231 cells assessed as cell growth inhibition measured after 48 hrs by MTT assay relative to control; assay type: functional; design: scale not given: the % may be the effect or the level left
MDA-MB-231 [7] = test: Antiproliferative activity against human MDA-MB-231 cells assessed as cell growth inhibition measured after 48 hrs by MTT assay; assay type: functional, cell-based; settings: MDA-MB-231, 48 h
[8] = Metal chelating activity assessed as Zn2+-compound complex formation by measuring binding energy
Candida albicans [9] = test: Antifungal activity against Candida albicans 475/15 assessed as fungal growth inhibition measured after 24 hrs by microdilution assay; assay type: functional
Candida albicans [10] = test: Antifungal activity against Candida albicans 13/15 assessed as fungal growth inhibition measured after 24 hrs by microdilution assay; assay type: functional
Candida albicans [11] = test: Antifungal activity against Candida albicans 10/15 assessed as fungal growth inhibition measured after 24 hrs by microdilution assay; assay type: functional
[12] = Metal chelating activity assessed as compound-Fe2+ complex formation by measuring binding energy
[13] = Antioxidant activity assessed as ABTS radical scavenging activity at 10 wt% incubated for 6 mins in presence of Si and PCL50 by UV spectrophotometer analysis relative to control; assay type: functional
[14] = Competitive inhibition of xanthine oxidase (unknown origin) at 0.4 uM using xanthine as substrate preincubated with substrate for 1 min followed by compound addition by double beam spectrophotometer analysis relative to control
[15] = Antioxidant activity assessed as ABTS radical scavenging activity at 5 wt% incubated for 6 mins in presence of Si and PCL50 by UV spectrophotometer analysis relative to control; assay type: functional
Candida albicans [16] = test: Antifungal activity against Candida albicans 527/14 assessed as fungal growth inhibition measured after 24 hrs by microdilution assay; assay type: functional
[17] = Antioxidant activity assessed as ABTS radical scavenging activity at 15 wt% incubated for 6 mins in presence of Si and PCL50 by UV spectrophotometer analysis relative to control; assay type: functional
[18] = Non-competitive inhibition of xanthine oxidase (unknown origin) at 0.4 uM using xanthine as substrate preincubated with substrate for 1 min followed by compound addition by double beam spectrophotometer analysis relative to control
MCF7 [19] = test: Antiproliferative activity against human MCF7 assessed as reduction in cell viability incubated for 48 hrs by MTT assay; assay type: functional
[20] = molecular target: Urease subunit alpha/Urease subunit beta (Helicobacter pylori (strain ATCC 700392 / 26695) (Campylobacterpylori), UniProt P69996); test: Inhibition of Helicobacter pylori urease assessed as measuring ammonia production incubated for 1.5 hr by indophenol method; assay type: protein-complex assay
[21] = Metal chelating activity assessed as compound-Cu2+ complex formation by measuring binding energy
MCF7 [22] = test: Induction of apoptosis in human MCF7 cells assessed as early apoptotic cells at 50 uM measured after 12 hrs by annexin V-FITC/propidium iodide staining based flow cytometry relative to control; assay type: functional
J774.A1 = test: Inhibition of LPS-induced NO production in mouse J774.A1 cells pre-incubated with compound for 1 hr followed by LPS stimulation for 24 hrs by ELISA assay; assay type: functional, cell-based
[23] = Competitive inhibition of xanthine oxidase (unknown origin) at 0.05 uM using xanthine as substrate preincubated with substrate for 1 min followed by compound addition by double beam spectrophotometer analysis relative to control
[24] = Selectivity index, ratio of CTD50 for cytotoxicity against MDCK cells to EC50 for antiviral activity against Influenza A H1N1/pdm09 infected in MDCK cells; assay type: toxicity, cell-based; settings: dog, read-out: Selectivity Index
[25] = Cytotoxicity against MDCK cells assessed as reduction in cell viability incubated for 48 hrs by MTT assay; assay type: toxicity, cell-based, Canis lupus familiaris; settings: dog, read-out: CTD50
Influenza A virus = test: Antiviral activity against Influenza A virus H1N1/pdm09 infected in MDCK cells pretreated with compound for 1 hr followed virus infection measured after 48 hrs; assay type: functional, organism-based
Staphylococcus aureus [26] = test: Antibiofilm activity against methicillin resistant Staphylococcus aureus AMCSA 5016 assessed as inhibition of biofilm formation incubated for 24 hrs by crystal violet staining based assay; assay type: functional, organism-based; settings: AMCSA 5016, 24 h
Pseudomonas aeruginosa [27] = test: In vivo antibacterial activity against carbapenem-susceptible Pseudomonas aeruginosa ATCC 27853 infected in CD-1 mouse assessed as mouse survival at 40 mg/kg per day administered for 7 days in presence of ceftazidime; assay type: functional; settings: time 7 day
Staphylococcus aureus [28] = test: Antibiofilm activity against methicillin sensitive Staphylococcus aureus ATCC 29213 assessed as inhibition of biofilm formation incubated for 24 hrs by crystal violet staining based assay; assay type: functional, organism-based; settings: ATCC 29213, 24 h
Acinetobacter baumannii = test: Antibacterial activity against carbapenem-resistant Acinetobacter baumannii AMC-AB 643 assessed as fold reduction in ceftazidime MIC incubated for 20 hrs by checkerboard synergy test; assay type: functional
Staphylococcus aureus [29] = test: Antibiofilm activity against heteroresistant vancomycin-intermediate Staphylococcus aureus ATCC 700698 assessed as inhibition of biofilm formation incubated for 24 hrs by crystal violet staining based assay; assay type: functional, organism-based; settings: ATCC 700698, 24 h
Pseudomonas aeruginosa [30] = test: Antibacterial activity against carbapenem-resistant Pseudomonas aeruginosa CCARM2321 assessed as fold reduction in ceftazidime MIC incubated for 20 hrs by checkerboard synergy test; assay type: functional
Staphylococcus aureus [31] = test: Antibiofilm activity against vancomycin-intermediate Staphylococcus aureus ATCC 700699 assessed as inhibition of biofilm formation incubated for 24 hrs by crystal violet staining based assay; assay type: functional, organism-based; settings: ATCC 700699, 24 h

Sequence of UDP-galactopyranose mutase (Mycobacterium tuberculosis) (P9WIQ1 whole entry, looked up): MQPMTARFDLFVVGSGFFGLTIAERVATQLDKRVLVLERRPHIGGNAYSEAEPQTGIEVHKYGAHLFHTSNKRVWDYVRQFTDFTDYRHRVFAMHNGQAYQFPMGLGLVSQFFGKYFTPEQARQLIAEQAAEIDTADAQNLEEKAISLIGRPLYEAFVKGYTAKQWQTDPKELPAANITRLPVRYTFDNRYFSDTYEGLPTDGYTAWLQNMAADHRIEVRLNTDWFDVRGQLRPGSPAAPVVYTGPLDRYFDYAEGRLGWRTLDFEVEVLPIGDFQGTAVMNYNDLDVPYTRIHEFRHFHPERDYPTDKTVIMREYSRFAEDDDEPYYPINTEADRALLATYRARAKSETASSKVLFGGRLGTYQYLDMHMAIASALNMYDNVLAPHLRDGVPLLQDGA
Sequence of UDP-galactopyranose mutase (P9WIQ1 whole entry): as the sequence (P9WIQ1 whole entry, looked up) above
Sequence of Type-1 angiotensin II receptor (P30556 whole entry): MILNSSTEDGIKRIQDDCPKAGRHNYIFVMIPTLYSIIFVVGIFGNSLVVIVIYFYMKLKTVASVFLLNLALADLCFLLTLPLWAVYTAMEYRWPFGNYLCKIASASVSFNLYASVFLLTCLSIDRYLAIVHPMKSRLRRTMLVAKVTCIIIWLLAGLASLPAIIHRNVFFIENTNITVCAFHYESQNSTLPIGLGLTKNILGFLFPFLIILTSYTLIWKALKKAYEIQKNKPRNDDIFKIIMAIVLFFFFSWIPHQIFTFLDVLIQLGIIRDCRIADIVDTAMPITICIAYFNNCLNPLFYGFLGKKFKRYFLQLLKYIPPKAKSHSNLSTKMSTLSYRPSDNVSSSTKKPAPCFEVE
Sequence of Urease subunit alpha/Urease subunit beta (P69996 whole entry): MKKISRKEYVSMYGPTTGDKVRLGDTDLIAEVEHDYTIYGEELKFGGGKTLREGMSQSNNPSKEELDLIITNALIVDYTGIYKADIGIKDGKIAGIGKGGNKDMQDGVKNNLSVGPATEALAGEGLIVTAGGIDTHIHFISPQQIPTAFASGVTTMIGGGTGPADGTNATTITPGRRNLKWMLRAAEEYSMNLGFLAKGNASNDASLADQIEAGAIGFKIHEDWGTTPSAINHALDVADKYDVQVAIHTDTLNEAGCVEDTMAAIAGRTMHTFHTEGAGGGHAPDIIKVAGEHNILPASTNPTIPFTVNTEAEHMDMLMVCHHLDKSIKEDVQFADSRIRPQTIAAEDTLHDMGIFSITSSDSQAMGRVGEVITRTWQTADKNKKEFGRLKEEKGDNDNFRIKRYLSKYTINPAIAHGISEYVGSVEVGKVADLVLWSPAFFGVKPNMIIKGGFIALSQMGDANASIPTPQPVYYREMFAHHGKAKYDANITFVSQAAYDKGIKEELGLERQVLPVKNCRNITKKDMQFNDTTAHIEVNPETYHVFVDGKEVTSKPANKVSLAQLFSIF
Sequence of Urease subunit alpha/Urease subunit beta (P14916 whole entry, further chain): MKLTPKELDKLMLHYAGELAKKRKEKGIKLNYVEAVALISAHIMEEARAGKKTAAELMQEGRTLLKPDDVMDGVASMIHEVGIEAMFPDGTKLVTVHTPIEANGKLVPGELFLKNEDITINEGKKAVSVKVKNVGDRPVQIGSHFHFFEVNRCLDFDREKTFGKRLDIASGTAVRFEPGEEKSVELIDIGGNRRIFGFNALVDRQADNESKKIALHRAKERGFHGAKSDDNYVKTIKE

O=c1c(O)c(-c2ccc(O)c(O)c2)oc2c(CN3CCCCC3)c(O)cc(O)c12
inhibition [1]: 23.2%
Kd [2]: > 2000 µM

CCCCc1nc(Cl)c(COC(=O)CCC(=O)Oc2cc(-c3oc4cc(O)cc(O)c4c(=O)c3O)ccc2O)n1Cc1ccc(-c2ccccc2-c2nnn[nH]2)cc1
Activity (LN-229): 39%
IC50 [3]: 0.14 µM
Activity (U-87 MG): 38%

Nc1c(-c2ccc(O)c(O)c2)oc2cc(O)cc(O)c2c1=O
Activity [4]: 80%

COc1cc(OC)c2/c(=[S+]/C)c(OC)c(-c3ccc(OC)c(OC)c3)oc2c1.[I-]
Activity [5]: 0.05 mM
Activity (MDA-MB-231 [6]): 38.1%
IC50 (MDA-MB-231 [7]): 1.84 µM

COc1cc(OC)c2c(=O)c(OC)c(-c3ccc(OC)c(OC)c3)oc2c1
IC50 [5]: 620 µM
Activity (MDA-MB-231 [6]): 43.7%
IC50 (MDA-MB-231 [7]): 2.04 µM

O=c1c(O)c(-c2ccc(O)c(O)c2)oc2cc(O)cc(O)c12 [QUERCETIN]
Activity [8]: 3930 kJ/mol
MIC (Candida albicans [9]): 37.5 mg/L (≈ 124 µM)
Activity [4]: 80%
MIC (Candida albicans [10]): 37.5 mg/L (≈ 124 µM)
MIC (Candida albicans [11]): 37.5 mg/L (≈ 124 µM)
Activity [12]: 2900 kJ/mol
Activity [13]: 24.7%
inhibition [14]: 50%
Activity [15]: 15.6%
MIC (Candida albicans [16]): 37.5 mg/L (≈ 124 µM)
IC50 [5]: 4 µM
Activity [17]: 8.4%
inhibition [18]: 50%
Activity (MCF7 [19]): 70.8%
Ki [20]: 9.34 µM
Activity [21]: 3840 kJ/mol
Activity (MCF7 [22]): 44.1%
IC50 (J774.A1): 49.1 µM

CCCCc1nc(Cl)c(COC(=O)CCC(=O)Oc2ccc(-c3oc4cc(O)cc(O)c4c(=O)c3O)cc2O)n1Cc1ccc(-c2ccccc2-c2nnn[nH]2)cc1
IC50 [3]: 0.14 µM

O=c1oc2c(O)ccc(-c3oc4cc(O)cc(O)c4c(=O)c3O)c2s1
inhibition [23]: 50%

COc1cc(OC)c2/c(=N/c3ccccc3)c(OC)c(-c3ccc(OC)c(OC)c3)oc2c1
IC50 [5]: 490 µM

COc1cc(OC)c2/c(=N/N)c(OC)c(-c3ccc(OC)c(OC)c3)oc2c1
IC50 [5]: 40 µM

CCOC1(Br)C(=O)c2c(O)c(Br)c(O)c(Br)c2OC1(Br)c1cc(O)c(O)c(Br)c1 (centres undefined)
selectivity ratio [24]: 16
CC50 at 48 h [25]: 97.7 mg/L (≈ 134 µM)
EC50 (Influenza A virus): 6 mg/L (≈ 8.26 µM)

COc1cc(OC)c2/c(=N/c3cc(OC)c(OC)c(OC)c3)c(OC)c(-c3ccc(OC)c(OC)c3)oc2c1
IC50 [5]: 220 µM

O=c1c(O)c(-c2ccc(O)c(O)c2)oc2c(CN3CCCC3)c(O)cc(O)c12
inhibition [1]: 47.8%
Kd [2]: > 2000 µM

O=c1c(O)c(-c2ccc(F)c(F)c2)oc2cc(O)cc(O)c12
IC50 (Staphylococcus aureus [26]): 1.8 mg/L (≈ 5.88 µM)
Activity [4]: 50%
Activity (Pseudomonas aeruginosa [27]): 20%
IC50 (Staphylococcus aureus [28]): 1.8 mg/L (≈ 5.88 µM)
fold change (FC) (Acinetobacter baumannii): 4
Activity (MCF7 [22]): 47.7%
IC50 (Staphylococcus aureus [29]): 1.8 mg/L (≈ 5.88 µM)
fold change (FC) (Pseudomonas aeruginosa [30]): 8
IC50 (Staphylococcus aureus [31]): 1.8 mg/L (≈ 5.88 µM)
